Counter-ions that a name gives are not always drawn.
Tests used:
Assay type in all cases: cell-based
mouse TMC4 (mTMC4) [1] = biological target: T1, mouse TMC4 (mTMC4) (Mus musculus, UniProt Q7TQ65); experiment: whole-cell patch clamp, bath chloride fully replaced by gluconate; conditions: permeating anion; NMDG-Cl pipette; pH 7.4 bath, about 25 °C
T1 construct: coding region from circumvallate papillae cDNA in pIRES2-AcGFP1 with IRES and GFP removed; transiently expressed in HEK293T with separate EGFP plasmid
T1 sequence (Q7TQ65 1-694): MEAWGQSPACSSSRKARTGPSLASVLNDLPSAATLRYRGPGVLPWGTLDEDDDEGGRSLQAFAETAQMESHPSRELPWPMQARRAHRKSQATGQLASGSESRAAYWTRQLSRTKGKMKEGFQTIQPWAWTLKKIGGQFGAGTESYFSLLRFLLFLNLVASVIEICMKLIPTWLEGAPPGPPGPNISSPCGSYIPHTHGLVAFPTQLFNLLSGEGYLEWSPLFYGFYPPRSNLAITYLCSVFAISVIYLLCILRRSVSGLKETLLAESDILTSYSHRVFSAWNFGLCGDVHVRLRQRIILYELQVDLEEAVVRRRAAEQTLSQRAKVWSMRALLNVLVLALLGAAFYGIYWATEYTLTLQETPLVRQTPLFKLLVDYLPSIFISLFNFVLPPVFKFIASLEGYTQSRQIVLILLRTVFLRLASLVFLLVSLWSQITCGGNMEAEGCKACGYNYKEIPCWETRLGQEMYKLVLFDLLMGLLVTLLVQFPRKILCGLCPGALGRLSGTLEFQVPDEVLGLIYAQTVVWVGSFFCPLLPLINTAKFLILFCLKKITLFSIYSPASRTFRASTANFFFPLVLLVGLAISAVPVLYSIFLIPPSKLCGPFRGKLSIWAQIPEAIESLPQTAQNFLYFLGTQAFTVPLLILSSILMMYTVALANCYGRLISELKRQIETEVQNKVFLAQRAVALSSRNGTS

human TMC4 (hTMC4) = biological target: T2, human TMC4 (hTMC4) (Homo sapiens, UniProt Q7Z404); experiment: whole-cell patch clamp, step pulses, transfected HEK293T; conditions: pH 7.4 bath, pH 7.2 pipette, about 25 °C; channel blocker
T2 construct: coding region of purchased cDNA (Dharmacon) in pIRES2-AcGFP1 with IRES and GFP removed; transiently expressed in HEK293T
T2 sequence (Q7Z404 1-712): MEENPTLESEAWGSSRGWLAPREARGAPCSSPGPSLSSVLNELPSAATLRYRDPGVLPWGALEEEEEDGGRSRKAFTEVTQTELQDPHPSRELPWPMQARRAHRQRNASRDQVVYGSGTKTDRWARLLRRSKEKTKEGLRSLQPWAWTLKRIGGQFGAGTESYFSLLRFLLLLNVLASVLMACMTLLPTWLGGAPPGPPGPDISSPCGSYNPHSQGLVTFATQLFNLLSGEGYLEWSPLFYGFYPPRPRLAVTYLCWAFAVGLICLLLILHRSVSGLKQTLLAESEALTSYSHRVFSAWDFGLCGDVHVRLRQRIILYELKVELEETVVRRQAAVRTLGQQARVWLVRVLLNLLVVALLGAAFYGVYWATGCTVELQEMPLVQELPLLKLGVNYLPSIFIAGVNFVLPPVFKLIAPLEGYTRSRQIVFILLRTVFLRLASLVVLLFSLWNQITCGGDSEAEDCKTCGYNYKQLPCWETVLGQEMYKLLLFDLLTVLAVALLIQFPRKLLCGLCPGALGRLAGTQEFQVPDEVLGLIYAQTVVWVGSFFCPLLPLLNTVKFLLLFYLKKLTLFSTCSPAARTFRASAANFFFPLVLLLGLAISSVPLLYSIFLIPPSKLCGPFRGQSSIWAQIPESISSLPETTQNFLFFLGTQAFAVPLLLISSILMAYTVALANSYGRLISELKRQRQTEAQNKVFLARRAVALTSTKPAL

mouse TMC4 (mTMC4) [2] = biological target: T1, mouse TMC4 (mTMC4); experiment: as above; conditions: NMDG-Cl pipette, pH 7.4 bath, pH 7.2 pipette, about 25 °C, channel blocker
mouse TMC4 (mTMC4) [3] = biological target: T1, mouse TMC4 (mTMC4); experiment: whole-cell patch clamp, transfected HEK293T; conditions: pH 7.4 bath, pH 7.2 pipette, about 25 °C

O=C(O)[C@H](O)[C@@H](O)[C@H](O)[C@H](O)CO [gluconate]
whole-cell patch clamp, bath chloride fully replaced by gluconate (mouse TMC4 (mTMC4) [1]): outward currents did not disappear even when the bath solution was completely substituted with Na-gluconate

O=C(O)c1cc([N+](=O)[O-])ccc1NCCCc1ccccc1 [NPPB, 5-nitro-2-(3-phenylpropylamino) benzoic acid]
current reduction (human TMC4 (hTMC4)): hTMC4) also functions as a Cl^− channel with a similar voltage dependency and is inhibited by NPPB | Iblocker/Icontrol at + 60 mV (mouse TMC4 (mTMC4) [2]): mTMC4-mediated currents were strongly inhibited by the NPPB

CNCCC(Oc1ccc(C(F)(F)F)cc1)c1ccccc1 (centres unmarked) [Fluoxetine hydrochloride]
Iblocker/Icontrol at + 60 mV (mouse TMC4 (mTMC4) [3]; 100 μM compound): Fluoxetine hydrochloride and tannic acid also inhibited mTMC4-mediated currents

CC(C)(C)C1CCc2c(sc(NC(=O)c3ccco3)c2C(=O)O)C1 (centres unmarked) [CaCC(inh)-A01]
Iblocker/Icontrol at + 60 mV (mouse TMC4 (mTMC4) [3]): mTMC4-mediated currents were inhibited by CaCC(inh)-A01
